This passage reports Bliss excess results from the supplement of paper PMC11061612.

Experiment in all cases: Bliss excess, mean over the matrix (fraction); higher = more synergy
Assay [1] relates to A2780 (Ovarian Carcinoma). The essentials: (§1)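 Cell lines in DMEM/F12 or RPMI with 10% FBS were plated in 1536-well plates, held 24 hours at 37°C, 5% CO2, then given two-drug dose matrices for 72 hours (DMSO typically 0.2%). Viability was read by CellTiter-Glo 2.0 luminescence and scaled as inhibition from 0 (vehicle wells) to 1 (blank wells). Combination Emax is the second-highest inhibition in the matrix; Bliss excess is observed combination effect minus expected EA + EB − EA·EB, EA and EB being single-agent effects.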

Another assay has as its system KP-N-YN (Neuroblastoma). An outline of the steps: as §1
For assay [2], the system named is LU-165 (Small Cell Lung Carcinoma). An outline of the steps:
as §1

For assay [3], the system named is MDA-MB-436 (Breast Carcinoma). An outline of the steps: as §1
Assay [4] relates to MHH-ES-1 (Ewing's Sarcoma). An outline of the steps:
as §1

For assay [5], the system named is NCI-H1703 (Squamous Cell Lung Carcinoma). An outline of the steps:
as §1

For assay [6], the system named is NCI-H441 (Lung Adenocarcinoma). The essentials:
as §1

In assay [7] the test system is UACC-812 (Breast Carcinoma). The essentials: as §1
The test system of the next assay is WM1552C (Melanoma). An outline of the steps: as §1

Take `C=CCn1c(=O)c2cnc(Nc3ccc(N4CCN(C)CC4)cc3)nc2n1-c1cccc(C(C)(C)O)n1` [AZD1775] + CCc1c2c(nc3ccc(O)cc13)-c1cc3c(c(=O)n1C2)COC(=O)[C@]3(O)CC [SN-38] (first compound max 1 µM, partner max 0.3 µM): the Bliss excess was -0.0704 in assay [1]; -0.0339 in the assay with KP-N-YN (Neuroblastoma); -0.0771 in assay [2]; -0.0545 in assay [3]; -0.0073 in [4]; -0.0341 in assay [5]. Also, the results for the Bliss excess (in assay [6]; in assay [7]; in the assay with WM1552C (Melanoma)) were -0.0906, -0.0472 and -0.0628, respectively.
On to `C=CCn1c(=O)c2cnc(Nc3ccc(N4CCN(C)CC4)cc3)nc2n1-c1cccc(C(C)(C)O)n1` [AZD1775] + Nc1ccn([C@@H]2O[C@H](CO)[C@@H](O)C2(F)F)c(=O)n1 [Gemcitabine] (first compound max 1 µM, partner max 0.3 µM), for which the Bliss excess in assay [1] is 0.0543; in assay [2], 0.0004; in assay [3], 0.0536; in assay [4], 0.0359; in assay [5] it was 0.0364; in [6], -0.0298. For the same molecule, the Bliss excess is -0.0613 in assay [7] and -0.0467 with WM1552C (Melanoma).
For `CN(CCO)CC[C@H](CSc1ccccc1)Nc1ccc(S(=O)(=O)NC(=O)c2ccc(N3CCC([C@@H](O)c4ccccc4-c4ccc(Cl)cc4)CC3)cc2)cc1S(=O)(=O)C(F)(F)F` [AZD4320] + CS(=O)(=O)CCNCc1ccc(-c2ccc3ncnc(Nc4ccc(OCc5cccc(F)c5)c(Cl)c4)c3c2)o1 [Lapatinib] (first compound max 1 µM, 7x7, partner max 10 µM), the Bliss excess in [1] is 0.0005; in the assay with KP-N-YN (Neuroblastoma) it was 0.0811; in [3], -0.0333; in [4] it was 0.136; in [5], 0.0162; in assay [6], -0.0156. For the same molecule, the Bliss excess was -0.0066 in assay [7] and 0.0285 with WM1552C (Melanoma).
In the case of `Cc1c2c(nn1C)CSCc1cc(n(C)n1)CSc1cc(c3ccccc3c1)OCCCc1c(C(=O)O)n(C)c3c-2c(Cl)ccc13` [AZD5991] + CC(=O)O[C@H]1C(=O)[C@@]2(C)[C@H]([C@H](OC(=O)c3ccccc3)[C@]3(O)C[C@H](OC(=O)[C@H](O)[C@@H](NC(=O)c4ccccc4)c4ccccc4)C(C)=C1C3(C)C)[C@]1(OC(C)=O)CO[C@@H]1C[C@@H]2O [Paclitaxel] (first compound max 1 µM, 7x7, partner max 3 µM), the Bliss excess in assay [1] is 0.0614; in the assay on KP-N-YN (Neuroblastoma), -0.0275; in [2], -0.0443; in assay [3], 0.0273; in [4], -0.009; in [5], -0.0136. Further, the Bliss excess in assay [6] is -0.0193; in assay [7] it was 0.0968; with WM1552C (Melanoma), 0.0097.
Regarding `Cc1c2c(nn1C)CSCc1cc(n(C)n1)CSc1cc(c3ccccc3c1)OCCCc1c(C(=O)O)n(C)c3c-2c(Cl)ccc13` [AZD5991] + CS(=O)(=O)CCNCc1ccc(-c2ccc3ncnc(Nc4ccc(OCc5cccc(F)c5)c(Cl)c4)c3c2)o1 [Lapatinib] (first compound max 1 µM, 7x7, partner max 10 µM), the Bliss excess was 0.0013 in assay [1]; 0.0426 in the assay with KP-N-YN (Neuroblastoma); -0.125 in [2]; -0.0434 in assay [3]; 0.0286 in assay [4]; -0.0374 in assay [5]. Besides, the Bliss excess in assay [6] was -0.0054; in [7], 0.0603; with WM1552C (Melanoma) it was 0.0199.
As for `Cc1c2c(nn1C)CSCc1cc(n(C)n1)CSc1cc(c3ccccc3c1)OCCCc1c(C(=O)O)n(C)c3c-2c(Cl)ccc13` [AZD5991] + Nc1ccn([C@@H]2O[C@H](CO)[C@@H](O)C2(F)F)c(=O)n1 [Gemcitabine] (first compound max 1 µM, 7x7, partner max 0.3 µM), the Bliss excess is -0.0035 in assay [1]; -0.0278 in assay [2]; -0.06 in assay [3]; -0.0604 in assay [5]; 0.0106 in assay [6]; -0.0041 in assay [7]. The Bliss excess in the assay on WM1552C (Melanoma) is -0.0232.
As for `C[C@@H]1COCCN1c1cc(C2([S@](C)(=N)=O)CC2)nc(-c2ccnc3[nH]ccc23)n1` [AZD6738] + C1CC(C1)(C(=O)[O-])C(=O)[O-].N.N.[Pt+2] [Carboplatin] (first compound max 10 µM, 7x7, partner max 10 µM), the Bliss excess is -0.0379 in [1]; -0.0177 with KP-N-YN (Neuroblastoma); -0.0517 in [2]; -0.0038 in [3]; -0.0078 in assay [4]; -0.0312 in [5]. In addition, the Bliss excess is -0.0436 in [6], -0.0423 in assay [7] and -0.0299 in the assay with WM1552C (Melanoma).
As for `C[C@@H]1COCCN1c1cc(C2([S@](C)(=N)=O)CC2)nc(-c2ccnc3[nH]ccc23)n1` [AZD6738] + Nc1ccn([C@@H]2O[C@H](CO)[C@@H](O)C2(F)F)c(=O)n1 [Gemcitabine] (first compound max 10 µM, 7x7, partner max 0.3 µM), the Bliss excess in assay [1] was -0.0243; in assay [2], -0.018; in [3], 0.0544; in [4], 0.0624; in assay [5], -0.006; in assay [6], 0.0418. The Bliss excess in [7] was 0.0592; in the assay with WM1552C (Melanoma) it was 0.0225.
With `C[C@@H](Nc1cc(F)cc(F)c1)c1cc(C(=O)N(C)C)cc2c(=O)cc(N3CCOCC3)oc12` [AZD8186] + C1CN(CCC1(C(=O)N[C@@H](CCO)C2=CC=C(C=C2)Cl)N)C3=NC=NC4=C3C=CN4 [AZD5363] (first compound max 10 µM, 7x7, partner max 10 µM), the Bliss excess in [1] is -0.0411; in the assay on KP-N-YN (Neuroblastoma) it was -0.0765; in assay [2], -0.086; in assay [3] it was -0.0162; in assay [4] it was 0.0026; in assay [5], 0.0503. Besides, the Bliss excess was -0.0392 in assay [6], -0.0187 in assay [7] and -0.0322 in the assay with WM1552C (Melanoma).
As for `C[C@@H](Nc1cc(F)cc(F)c1)c1cc(C(=O)N(C)C)cc2c(=O)cc(N3CCOCC3)oc12` [AZD8186] + CC(=O)c1c(C)c2cnc(Nc3ccc(N4CCNCC4)cn3)nc2n(C2CCCC2)c1=O [Palbociclib] (first compound max 10 µM, 7x7, partner max 10 µM), the Bliss excess in [1] is 0.0054; in the assay on KP-N-YN (Neuroblastoma) it was 0.0108; in assay [2], -0.0313; in assay [3], -0.0039; in [4] it was 0.108; in assay [5] it was 0.0093. Besides, the figures for the Bliss excess (in assay [6]; in [7]; in the assay on WM1552C (Melanoma)) were 0.0155, 0.0506 and -0.0163, respectively.
Consider `C[C@@H](Oc1cc(-c2cnn(C3CCNCC3)c2)cnc1N)c1c(Cl)ccc(F)c1Cl` [Crizotinib] + CC1=C(C(=CC=C1)Cl)NC(=O)C2=CN=C(S2)NC3=CC(=NC(=N3)C)N4CCN(CC4)CCO [Dasatinib] (first compound max 10 µM, 7x7, partner max 2 µM), for which the Bliss excess in assay [1] was 0.051; in the assay with KP-N-YN (Neuroblastoma), -0.0895; in assay [2], -0.0337; in [3] it was -0.0418; in assay [4] it was -0.0279; in assay [5], -0.0736. For the same molecule, the values for the Bliss excess (in assay [6]; in assay [7]; in the assay with WM1552C (Melanoma)) were 0.0104, -0.0135 and 0.0392, respectively.
`C[C@@H](Oc1cc(-c2cnn(C3CCNCC3)c2)cnc1N)c1c(Cl)ccc(F)c1Cl` [Crizotinib] + Cn1cnc2c(F)c(Nc3ccc(Br)cc3Cl)c(C(=O)NOCCO)cc21 [Selumetinib] (first compound max 10 µM, 7x7, partner max 10 µM): the Bliss excess in assay [1] is 0.0077; in the assay on KP-N-YN (Neuroblastoma), -0.105; in assay [2], -0.082; in assay [3], -0.005; in assay [4] it was -0.0236; in [5] it was -0.0569. Further, the Bliss excess was 0.0148 in [6], -0.0437 in assay [7] and -0.0338 in the assay on WM1552C (Melanoma).
On to `CS(=O)(=O)CCNCc1ccc(-c2ccc3ncnc(Nc4ccc(OCc5cccc(F)c5)c(Cl)c4)c3c2)o1` [Lapatinib] + Cn1cnc2c(F)c(Nc3ccc(Br)cc3Cl)c(C(=O)NOCCO)cc21 [Selumetinib] (first compound max 10 µM, 7x7, partner max 10 µM), for which the Bliss excess in [1] was -0.018; in the assay with KP-N-YN (Neuroblastoma), -0.0666; in [2], -0.0543; in assay [3], -0.0587; in [4] it was 0.0015; in assay [5], -0.0179. Also, the figures for the Bliss excess (in assay [6]; in [7]; with WM1552C (Melanoma)) were -0.0353, -0.0001 and -0.0077, respectively.
For the molecule `O=C(c1cc(Cc2n[nH]c(=O)c3ccccc23)ccc1F)N1CCN(C(=O)C2CC2)CC1` [Olaparib] + CC1(C)CCC(CN2CCN(c3ccc(C(=O)NS(=O)(=O)c4ccc(NCC5CCOCC5)c([N+](=O)[O-])c4)c(Oc4cnc5[nH]ccc5c4)c3)CC2)=C(c2ccc(Cl)cc2)C1 [Venetoclax] (first compound max 10 µM, 7x7, partner max 1 µM), the Bliss excess in assay [1] was -0.0044; with KP-N-YN (Neuroblastoma), 0.186; in assay [2], -0.0248; in assay [3] it was -0.0518; in assay [4] it was 0.0283; in assay [5] it was -0.0065. Also, the Bliss excess in assay [6] is -0.0407; in assay [7] it was -0.0202; with WM1552C (Melanoma) it was -0.0325.
Regarding `O=C(c1cc(Cc2n[nH]c(=O)c3ccccc23)ccc1F)N1CCN(C(=O)C2CC2)CC1` [Olaparib] + CN(CC[C@H](CSC1=CC=CC=C1)NC2=C(C=C(C=C2)S(=O)(=O)NC(=O)C3=CC=C(C=C3)N4CCC(CC4)[C@H](C5=CC=CC=C5C6=CC=C(C=C6)Cl)O)S(=O)(=O)C(F)(F)F)CCO [AZD4320] (first compound max 10 µM, 7x7, partner max 1 µM), the Bliss excess in [1] was -0.0295; in the assay with KP-N-YN (Neuroblastoma), 0.0322; in [2], -0.008; in [3], -0.0288; in [4], 0.0657; in [5], -0.0311. Moreover, the values for the Bliss excess (in [6]; in assay [7]; with WM1552C (Melanoma)) were -0.0587, -0.0086 and 0.0005, respectively.
For the molecule `O=C(c1cc(Cc2n[nH]c(=O)c3ccccc23)ccc1F)N1CCN(C(=O)C2CC2)CC1` [Olaparib] + COc1nnc2ccc(N3CCC(c4ccc(OCCN5CCN(C)C(=O)[C@H]5C)cc4)CC3)nn12 [AZD5153] (first compound max 10 µM, 7x7, partner max 1 µM), the Bliss excess is -0.0856 in [1]; -0.0142 in the assay on KP-N-YN (Neuroblastoma); -0.0305 in [2]; -0.0247 in [3]; 0.0286 in [4]; -0.0244 in assay [5]. Moreover, the Bliss excess in assay [6] is -0.0779; in assay [7] it was -0.0384; in the assay on WM1552C (Melanoma) it was -0.0553.
